Here are results for 2 molecules from patent publication US10800806B2, “Sterol derivatives and use thereof for treating diseases involving transformed astrocyte cells or for treating malignant haemopathies” (BETA INNOV, priority 2012, dated 2020).

In data set [1] the test system is liver cells. Description: Toxicity in vitro on primary cultures of liver cells. Format: cell-based, human. To be noted: 30 μM, at least 30 days of treatment. The method, then: Of human origin, they were obtained from ScienCell, USA (ref. 50200) as was the culture medium (ref. 5201), which contains 10% (v/v) FCS. The doubling time of these cells is 24 h. • Renal cells
(§1) The same methods are used for both cases. For the activity, the anti-GBM potential of the test compounds is used, and the toxicity, is tested on normal cells of human origin maintained “in vitro”.
(§2) The cells used are liver cells (ScienCell, USA, ref. 50200), kidney cells (ScienCell, USA, ref. 4120), skeletal muscle cells (ScienCell, USA, ref. 3500) and cardiac cells (ScienCell, USA, ref. 6300), of human origin, mentioned above (section II, A).

The subject of data set [2] is cardiac cells. Briefly: Toxicity in vitro on primary cultures of cardiac cells. Particulars: 30 μM, at least 30 days of treatment. Format: cell-based, human. The method, then:
These cells, of human origin, were obtained from ScienCell, USA (ref. 6300) as was the culture medium, which contains 10% (v/v) FCS. The doubling time is 72 h. • Skeletal muscle cells
as §1, §2

The subject of data set [3] is skeletal muscle cells. Description: Toxicity in vitro on primary cultures of skeletal muscle cells. Particulars: 30 μM, at least 30 days of treatment. Format: cell-based, human. Here is the method:
Of human origin, they were obtained from ScienCell, USA (ref. 3500) as was the culture medium (ref. 3501), which contains 10% (v/v) FCS. The doubling time for these cells is 72 h.
as §1, §2

Data set [4] concerns kidney cells. Description: Toxicity in vitro on primary cultures of kidney cells. Format: cell-based, human. To be noted: 30 μM, at least 30 days of treatment. The method, then:
These cells, of human origin, were obtained from ScienCell, USA (ref. 4120) as was the culture medium (ref. 4101), which contains 10% (v/v) FCS. The doubling time is 96 h. • Cardiac cells
as §1, §2

For data set [5], the system named is human glioblastoma lines (GBM, line U-87 MG). Briefly: Anti-GBM activity in vitro on cultures of human U87-MG cells, cell aggregates (CA). Format: cell-based. The method, then:
Plastic flat-bottomed 96-well culture plates (NUNC, USA) treated for cell culture (Sigma-Aldrich, ref. 114754) are used; 1500 cells are seeded per well in 200 μl of culture medium. At the time of treatment, 100 μl of pure culture medium, 100 μl of culture medium containing ethanol, or liposomes, or 100 μl of culture medium containing the active ingredients are added per well; the final volume of the culture medium, after treatment, is therefore 300 μl for all the wells.
The human glioblastoma lines (GBM, line U-87 MG) and their culture medium (Eagle's Minimum Essential Medium or EMEM) were obtained from ATCC (USA, ref. ATCC-HTB-14). Culture of the cells is started and maintained according to the recommendations of the ATCC. These lines are commonly used “in vitro” and “in vivo” for testing anti-GBM potential. The doubling time of these lines is 16 h.
The active ingredients are either dissolved in absolute ethanol (AnalaR, NORMAPUR, VWR, France) or in the form of a liposomal solution, such as 10 μl of the stock solutions diluted in 990 μl and then added to the culture wells ([…] medium per well BI-GBM: 300 μl).
When the active ingredients are in ethanolic solution, the culture medium contains […] ethanol (v/v).
Briefly, the compounds to be tested, namely the compounds according to the invention (active ingredients) or 7β-OHCH—C3-ester (a derivative of 7beta-hydroxysterol esterified in position 3 with an oleate group, the synthesis of which is described by Rakotoarivelo et al. (18) and used as control), soya phosphatidylcholine (Sigma) as well as cholesteryl-3-sulphate (Sigma) are taken from their stock solutions prepared from dichloroethane in the case of the active ingredients and the 7β-OHCH—C3-ester, a chloroform:methanol mixture (9:1, v/v) in the case of phosphatidylcholine and chloroform in the case of cholesteryl-3-sulphate. The molar ratios are 1 M/0.1 M/0.25 M for phosphatidylcholine, cholesteryl-3-sulphate and the 7β-OHCH—C3-ester and the active ingredients respectively.
After evaporation, a solution of PBS saline, without Ca^2+ and Mg^2+, pH7.2 (BioRad) is added to the dry compound. The volume of buffer and the mass of the products are adjusted so that 20 or 10 μl of liposomes added to 90 μl of culture medium gives the desired final concentrations. The liposomes are formed by the extrusion technique with Liposofast (Sodexim, SA Muizon, France). The solution is passed through polycarbonate filtration membranes (100 nm) 41 times. The liposomes are sterilized by filtration on […] Millipore membranes.
For example, in the case of the cultures in 96-well plates and as a function of the magnification of the microscope used (objectives×10 or ×20, oculars×10), a photograph taken represents a field of view with a diameter equal to 1/5 of the diameter of a well. Therefore the total number of cells in a well is equal to […] the number of cells per photograph. This technique was compared with a standard technique (trypsinization of the cell layer, centrifugation of the cells, suspension of the cells in physiological saline solution and counting with a THOMA cell) in the case of the C6 cells. The results obtained are identical for both methods.
The culture medium is withdrawn from each well and 50 μl of Laemmli buffer (0.1 ml of Tris, 0.8 ml of glycerol, 1.6 mL of 10% SDS, 8 ml q.s.f ultrapure water) is added per well.
This test makes it possible to detect the cellular respiration, especially the mitochondrial respiration. The stock solution of tetrazolium salt MTT (3-(4,5-dimethylthiazol-2-yl)-2,5-diphenyl tetrazolium bromide, Sigma-Aldrich, USA, ref. M5655) is prepared with 10 mg of MIT/ml of PBS buffer (phosphate-buffered saline, SIGMA, ref. D 1408). This solution is added directly to the culture medium in each well; the final concentration of MTT is 25 μg/ml. The plate is then incubated at 37° C. for at least 1 h. […]

The test system of data set [6] is normal (non-cancerous) human astrocytes. Briefly: Toxicity in vitro on primary cultures of normal human astrocytes. Format: cell-based. Particulars: 30 μM, after 30 days of treatment. Here is the method:
The astrocyte cells of human origin used were obtained from ScienCell, USA (ref. 1800) as well as their culture medium, made up of basic medium containing 2% (v/v) FCS serum (ref. 0010), astrocyte growth proteins (AGS, ref. 1852) and a solution of penicillin/streptomycin (ref. 0503). The doubling time of these human astrocytes is 96 h. • Hepatic cells
as §1
The cells used are cells of human origin (ScienCell, USA, ref. 1800), mentioned above (section II, A).
The astrocyte type is validated by the presence of GFAP, the standard marker of normal astrocytes (FIG. 11; magnification×200).

Each structure is given as a SMILES string.

Consider `CC(C)CCCC(C)C1CCC2C3C(OC(=O)OC(C)(C)C)C=C4CC(OC(=O)C5COC(C)(C)O5)CCC4(C)C3CCC12C` (stereo not drawn) [Molecule 2.a, 7-((tert-butoxycarbonyl)oxy)-10,13-dimethyl-17-(6-methylheptan-2-yl)-2,3,4,7,8,9,10,11,12,13,14,15,16,17-tetradecahydro-1H-cyclopenta[a]phenanthren-3-yl 2,2-dimethyl-1,3-dioxolane-4-carboxylate], for which the toxicity result in data set [1] (liposomal form), in data set [2] (liposomal form), in data set [3] (liposomal form), in data set [4] (liposomal form) and in data set [6] (liposomal form) was “not toxic” in each case. Moreover, the “presence of GBM cells (CA)” value in data set [5] (15 μM, liposomal form, 15 days of treatment) is given as “zero”. Besides, in data set [5] (liposomal form), the “cellular respiration before cell death” value is given as “cellular respiration increases before cell death”. Besides, the “MTT/cell relative to the controls” value in data set [5] (liposomal form, 8 days of treatment) is listed as 140%. The “cell multiplication after replacing the medium with fresh drug-free medium” value in data set [5] (liposomal form, medium replaced on the 13th day of treatment) is “no cell multiplication is observed”.

`CC(=O)OC1C=C2CC(OC(=O)C3COC(C)(C)O3)CCC2(C)C2CCC3(C)C(C(C)CCCC(C)C)CCC3C12` (stereo not drawn) [Molecule 2.b, 7-acetoxy-10,13-dimethyl-17-(6-methylheptan-2-yl)-2,3,4,7,8,9,10,11,12,13,14,15,16,17-tetradecahydro-1H-cyclopenta[a]phenanthren-3-yl 2,2-dimethyl-1,3-dioxolane-4-carboxylate]: the toxicity result in data set [1] (ethanolic form), in data set [2] (ethanolic form), in data set [3] (ethanolic form), in data set [4] (ethanolic form) and in data set [6] (ethanolic form) was “not toxic” throughout. Further, the “remaining GBM cells” value in data set [5] (30 μM, ethanolic form, even after removing the active ingredient) is recorded as “no GBM cell remains”. The “cellular respiration before cell death” value in data set [5] (ethanolic form) was “cellular respiration increases before cell death”. The “reduction of the level of proteins relative to the untreated control cells” value in data set [5] (ethanolic form) is recorded as 100%. For the same molecule, the “cellular multiplication after replacement of the culture medium with fresh drug-free medium” value in data set [5] (medium replaced at 22 days) was “does not lead to any cellular multiplication”.
